The values below come from PubChem BioAssay (NCI).

Common to all, as to test: inhibition of tumour cell growth, NCI panel, 48 h
Assay [1] relates to HT29 colon.
In assay [2] the test system is NCI-H226 lung.
For assay [3], the system named is IGROV1 ovarian.
Assay [4] concerns SK-MEL-2 melanoma.
For assay [5], the system named is RPMI-8226 leukemia.
In assay [6] the test system is U251 CNS.
For assay [7], the system named is BT-549 breast.
For assay [8], the system named is HOP-62 NSCLC.
In assay [9] the test system is HCT-15 colon.
The test system of assay [10] is LOX IMVI melanoma.

Structures are written as SMILES.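 How tested: cells in 96-well plates exposed to compound for 48 hours at five concentrations. The concentration for 50% growth inhibition is given as GI50. TGI marks complete inhibition of growth.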 Some results are limits rather than exact numbers.

On to `CO[C@H](C(=O)O)[C@@H]1Cc2cc3cc(OC4CC(OC5CC(O)C(O)C(C)O5)C(O)C(C)O4)c(C)c(O)c3c(O)c2C(=O)[C@H]1OC1CC(OC2CC(OC3CC(C)(O)C(O)C(C)O3)C(O)C(C)O2)C(O)C(C)O1` (stereo not given in full), for which the GI50 in assay [1] is 0.305 µM; in [2], 0.126 µM; in [3], 0.231 µM; in [4], 0.335 µM; in [5], 0.16 µM; in assay [6], 0.212 µM. For the same molecule, the GI50 is 0.136 µM in [7], 0.211 µM in [8], 1.66 µM in [9] and 0.114 µM in [10]. The TGI in [1] is greater than 32.5 µM; in assay [2] it was 0.892 µM; in assay [3], greater than 32.5 µM; in assay [4], 1.56 µM; in assay [5], 2.23 µM; in assay [6], greater than 32.5 µM. Moreover, the TGI is 1.13 µM in [7], greater than 32.5 µM in [8], greater than 32.5 µM in [9] and 1.48 µM in assay [10].

In the case of `O=c1c2c3c(sc2n2c(-c4ccc(Br)cc4)nnc2n1Cc1ccccc1)CCCC3`, the GI50 is 20.6 µM in assay [1]; 7.32 µM in assay [2]; 11.7 µM in assay [3]; 8.58 µM in [4]; 3.85 µM in [5]; 6.89 µM in [6]. For the same molecule, the GI50 was 6.04 µM in assay [7], 3.97 µM in assay [8], 4.39 µM in assay [9] and 10.5 µM in assay [10]. The TGI stood at 58.7 µM in assay [1]; 20.3 µM in assay [2]; 26.9 µM in assay [3]; 21.2 µM in assay [4]; 25.4 µM in [5]; 19.7 µM in assay [6]. Besides, the TGI in assay [7] amounted to 19.8 µM; in assay [8] it was 17.6 µM; in [9] it was 17.8 µM; in assay [10], 22.3 µM.

With `O=C(NCCCCOCC#Cc1ccccc1C#CCS(=O)(=O)c1ccccc1)c1cc2ccccc2[nH]1`, the GI50 in assay [1] was 13.7 µM; in [2], 9.85 µM; in assay [3], 2.68 µM; in [4], 20.9 µM; in [5] it was 2.78 µM; in [6], 9.64 µM. The GI50 in [7] is 8.38 µM; in assay [8], 21.5 µM; in [9], 7.21 µM; in assay [10], 1.58 µM. The TGI was greater than 50 µM in assay [1]; 25 µM in [2]; 7.03 µM in [3]; greater than 50 µM in [4]; 13.2 µM in [5]; 22 µM in assay [6]. In addition, the TGI in assay [7] is greater than 27.1 µM; in assay [8], greater than 50 µM; in assay [9], 15.7 µM; in [10], 4.8 µM.

Regarding `CCOC(=S)SCN1C(=O)c2ccccc2S1(=O)=O`, the GI50 is 14 µM in assay [1]; 29.2 µM in assay [2]; 18.5 µM in assay [3]; 44.5 µM in [4]; 12.8 µM in [5]; 18.7 µM in [6]. The GI50 is 16 µM in [7], 24.6 µM in assay [8], 19.2 µM in [9] and 17.1 µM in assay [10]. For the same molecule, the TGI in assay [1] was 45.9 µM; in assay [2], 80.9 µM; in assay [3], 52.4 µM; in [4] it was greater than 100 µM; in [5], 38.2 µM; in [6], 37.3 µM. Also, the TGI in [7] amounted to 38.4 µM; in [8] it was 65.8 µM; in [9], 36.1 µM; in assay [10] it was 31.9 µM.

With `Oc1ccc(Cl)cc1-c1cc(-c2ccc(F)cc2)n[nH]1`, the GI50 in [1] is 3.99 µM; in assay [2], 2.57 µM; in [3], 1.23 µM; in assay [4], 4.11 µM; in [5], 1.36 µM; in assay [6], 2.1 µM. Moreover, the GI50 in assay [7] is 3.59 µM; in [8] it was 2.98 µM; in assay [9], 0.416 µM; in assay [10], 1.51 µM. The TGI in assay [1] stood at 22.2 µM; in [2] it was 12.9 µM; in [3], 8.44 µM; in assay [4], 19.3 µM; in assay [5] it was 4.58 µM; in assay [6], 5 µM. The TGI is 16.6 µM in assay [7], 10.9 µM in assay [8], 22.5 µM in assay [9] and 3.55 µM in assay [10].

On to `CC1(C)[C@@H](OC(N)=O)C=C[C@]2(C=O)[C@H]3CC[C@]4(C)[C@@H](c5ccc(=O)oc5)[C@@H](Cl)C[C@]4(O)C3=CC[C@@H]12`, for which the GI50 in [1] is 0.00521 µM; in assay [2], 0.00433 µM; in assay [3], 0.00761 µM; in assay [4], 0.00679 µM; in assay [5] it was 0.00719 µM; in [6], 0.00451 µM. The GI50 in assay [7] was 0.00491 µM; in [8], 0.00331 µM; in assay [9], 0.00555 µM; in [10] it was 0.0046 µM. Also, the TGI was 0.011 µM in [1]; 0.00829 µM in assay [2]; 0.0244 µM in assay [3]; 0.0173 µM in [4]; 0.023 µM in [5]; 0.00854 µM in [6]. Besides, the TGI worked out at 0.0106 µM in [7], 0.00699 µM in assay [8], 0.0129 µM in [9] and 0.00885 µM in [10].

For `CCCCCCNC(=O)Oc1ccc(/C(=C(\C)c2ccccc2)c2ccc(OCCN(CC)CC)cc2)cc1`, the GI50 in assay [1] was 1.17 µM; in assay [2], 6.67 µM; in [3] it was 3.11 µM; in assay [4], 7.5 µM; in [5], 2.32 µM; in [6] it was 2.41 µM. For the same molecule, the GI50 was 6.05 µM in assay [7], 6.51 µM in [8], 1.31 µM in [9] and 1.1 µM in [10]. For the same molecule, the TGI in assay [1] worked out at 2.9 µM; in assay [2] it was 14.3 µM; in [3], 9.82 µM; in assay [4], 14.8 µM; in [5] it was 9.71 µM; in assay [6], 8.15 µM. The TGI in assay [7] is 12.5 µM; in [8], 13.4 µM; in assay [9], 3.68 µM; in assay [10] it was 2.96 µM.
